Measurements from publication PMC11378028 (RSC Advances, 2024).
In brackets after ≈: the same amount, converted by molar mass.

Tests used:
E. coli topoisomerase IV = E. coli topoisomerase IV (Escherichia coli, UniProt P20083); test: topoisomerase IV relaxation plate assay; format: biochemical; conditions: for remaining activity at 1 µM: read-out: RA (residual activity) E. coli topo IV
[1] = biological target: S. aureus topoisomerase IV (Staphylococcus aureus, UniProt P0C1S7); test: topoisomerase IV relaxation plate assay; format: biochemical; conditions: for remaining activity at 1 µM: read-out: RA (residual activity) S. aureus topo IV
Sequence of S. aureus topoisomerase IV (P0C1S7 whole entry): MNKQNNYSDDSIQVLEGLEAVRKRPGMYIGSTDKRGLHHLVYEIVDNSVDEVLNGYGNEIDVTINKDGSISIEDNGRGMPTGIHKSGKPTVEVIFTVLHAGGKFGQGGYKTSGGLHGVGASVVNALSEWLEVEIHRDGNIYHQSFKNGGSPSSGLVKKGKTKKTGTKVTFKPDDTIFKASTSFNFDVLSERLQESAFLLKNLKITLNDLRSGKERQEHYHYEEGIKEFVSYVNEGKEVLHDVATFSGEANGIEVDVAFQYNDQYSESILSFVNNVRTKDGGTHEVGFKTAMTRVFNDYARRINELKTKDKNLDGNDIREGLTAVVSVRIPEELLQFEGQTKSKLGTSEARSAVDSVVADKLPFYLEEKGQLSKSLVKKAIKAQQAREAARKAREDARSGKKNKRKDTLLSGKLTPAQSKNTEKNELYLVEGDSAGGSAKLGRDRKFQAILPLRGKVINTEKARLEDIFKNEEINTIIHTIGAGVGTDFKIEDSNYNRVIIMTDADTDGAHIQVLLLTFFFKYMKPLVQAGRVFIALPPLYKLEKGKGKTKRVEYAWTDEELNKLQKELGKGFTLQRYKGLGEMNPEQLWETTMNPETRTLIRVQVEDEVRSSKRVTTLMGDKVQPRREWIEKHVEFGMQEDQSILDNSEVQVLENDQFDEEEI
Sequence of S. aureus topoisomerase IV (P0C1U9 whole entry partner): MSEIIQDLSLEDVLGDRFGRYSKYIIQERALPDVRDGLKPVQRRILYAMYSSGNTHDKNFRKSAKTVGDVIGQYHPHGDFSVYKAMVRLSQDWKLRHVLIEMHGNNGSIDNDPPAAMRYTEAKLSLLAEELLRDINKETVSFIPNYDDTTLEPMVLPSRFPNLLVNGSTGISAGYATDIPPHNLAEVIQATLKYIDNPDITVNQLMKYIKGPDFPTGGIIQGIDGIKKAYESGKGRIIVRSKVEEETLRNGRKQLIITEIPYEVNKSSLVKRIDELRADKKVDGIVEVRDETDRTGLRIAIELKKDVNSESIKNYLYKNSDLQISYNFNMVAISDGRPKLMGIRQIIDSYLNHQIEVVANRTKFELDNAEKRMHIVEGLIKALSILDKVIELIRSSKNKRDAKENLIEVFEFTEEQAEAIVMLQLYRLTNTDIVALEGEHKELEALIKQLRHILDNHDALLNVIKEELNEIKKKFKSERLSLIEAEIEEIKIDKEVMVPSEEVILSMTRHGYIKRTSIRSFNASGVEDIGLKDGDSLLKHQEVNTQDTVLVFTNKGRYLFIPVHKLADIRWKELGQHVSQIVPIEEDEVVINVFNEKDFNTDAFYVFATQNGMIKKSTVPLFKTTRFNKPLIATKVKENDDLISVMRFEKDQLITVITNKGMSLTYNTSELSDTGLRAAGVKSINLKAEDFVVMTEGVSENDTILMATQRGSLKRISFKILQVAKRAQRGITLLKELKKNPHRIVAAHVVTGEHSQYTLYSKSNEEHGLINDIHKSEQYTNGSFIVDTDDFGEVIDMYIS

S. aureus DNA gyrase = S. aureus DNA gyrase (Staphylococcus aureus, UniProt P0A0K8); test: DNA gyrase supercoiling plate assay; format: biochemical; conditions: for remaining activity at 1 µM: read-out: RA (residual activity) S. aureus gyrase
E. coli DNA gyrase = E. coli DNA gyrase (Escherichia coli, UniProt P0AES6); test: DNA gyrase supercoiling plate assay; format: biochemical; conditions: IC50 E. coli gyrase, supercoiling assay
K. pneumoniae ATCC 10031 [2] = test: MIC, broth microdilution; format: cell-based; conditions: Klebsiella pneumoniae, ATCC10031, read-out: MIC K. pneumoniae ATCC 10031
A. baumannii ATCC 19606 = test: MIC, broth microdilution; format: cell-based; conditions: Acinetobacter baumannii, ATCC19606, read-out: MIC A. baumannii ATCC 19606
K. aerogenes ATCC 13408 = test: MIC, broth microdilution; format: cell-based; conditions: Klebsiella aerogenes, ATCC13408, read-out: MIC K. aerogenes ATCC 13408
S. aureus ATCC 29213 [3] = test: MIC, broth microdilution; format: cell-based, Staphylococcus aureus; conditions: for MIC: Staphylococcus aureus, ATCC29213, read-out: MIC S. aureus ATCC 29213, broth microdilution
E. coli ATCC 25922 = test: MIC, broth microdilution; format: cell-based; conditions: Escherichia coli, ATCC25922, read-out: MIC E. coli ATCC 25922
P. aeruginosa ATCC 27853 = test: MIC, broth microdilution; format: cell-based; conditions: Pseudomonas aeruginosa, ATCC27853, read-out: MIC P. aeruginosa ATCC 27853
[4] = system: K. pneumoniae ATCC 700603; test: MIC, broth microdilution; format: cell-based; conditions: Klebsiella pneumoniae, ATCC700603, read-out: MIC K. pneumoniae ATCC 700603
K. pneumoniae K9–K25 = test: MIC against fluoroquinolone-resistant clinical isolate; format: cell-based; conditions: Klebsiella pneumoniae, read-out: MIC K. pneumoniae K9–K25
K. pneumoniae SE K13 = test: as above; format: cell-based; conditions: Klebsiella pneumoniae, SEK13, read-out: MIC K. pneumoniae SE K13
[5] = biological target: human DNA topoisomerase IIα (Homo sapiens, UniProt P11388); test: human DNA topoisomerase IIα inhibition; format: biochemical; conditions: read-out: RA (residual activity) Human topo IIα
Sequence of human DNA topoisomerase IIα (P11388 whole entry): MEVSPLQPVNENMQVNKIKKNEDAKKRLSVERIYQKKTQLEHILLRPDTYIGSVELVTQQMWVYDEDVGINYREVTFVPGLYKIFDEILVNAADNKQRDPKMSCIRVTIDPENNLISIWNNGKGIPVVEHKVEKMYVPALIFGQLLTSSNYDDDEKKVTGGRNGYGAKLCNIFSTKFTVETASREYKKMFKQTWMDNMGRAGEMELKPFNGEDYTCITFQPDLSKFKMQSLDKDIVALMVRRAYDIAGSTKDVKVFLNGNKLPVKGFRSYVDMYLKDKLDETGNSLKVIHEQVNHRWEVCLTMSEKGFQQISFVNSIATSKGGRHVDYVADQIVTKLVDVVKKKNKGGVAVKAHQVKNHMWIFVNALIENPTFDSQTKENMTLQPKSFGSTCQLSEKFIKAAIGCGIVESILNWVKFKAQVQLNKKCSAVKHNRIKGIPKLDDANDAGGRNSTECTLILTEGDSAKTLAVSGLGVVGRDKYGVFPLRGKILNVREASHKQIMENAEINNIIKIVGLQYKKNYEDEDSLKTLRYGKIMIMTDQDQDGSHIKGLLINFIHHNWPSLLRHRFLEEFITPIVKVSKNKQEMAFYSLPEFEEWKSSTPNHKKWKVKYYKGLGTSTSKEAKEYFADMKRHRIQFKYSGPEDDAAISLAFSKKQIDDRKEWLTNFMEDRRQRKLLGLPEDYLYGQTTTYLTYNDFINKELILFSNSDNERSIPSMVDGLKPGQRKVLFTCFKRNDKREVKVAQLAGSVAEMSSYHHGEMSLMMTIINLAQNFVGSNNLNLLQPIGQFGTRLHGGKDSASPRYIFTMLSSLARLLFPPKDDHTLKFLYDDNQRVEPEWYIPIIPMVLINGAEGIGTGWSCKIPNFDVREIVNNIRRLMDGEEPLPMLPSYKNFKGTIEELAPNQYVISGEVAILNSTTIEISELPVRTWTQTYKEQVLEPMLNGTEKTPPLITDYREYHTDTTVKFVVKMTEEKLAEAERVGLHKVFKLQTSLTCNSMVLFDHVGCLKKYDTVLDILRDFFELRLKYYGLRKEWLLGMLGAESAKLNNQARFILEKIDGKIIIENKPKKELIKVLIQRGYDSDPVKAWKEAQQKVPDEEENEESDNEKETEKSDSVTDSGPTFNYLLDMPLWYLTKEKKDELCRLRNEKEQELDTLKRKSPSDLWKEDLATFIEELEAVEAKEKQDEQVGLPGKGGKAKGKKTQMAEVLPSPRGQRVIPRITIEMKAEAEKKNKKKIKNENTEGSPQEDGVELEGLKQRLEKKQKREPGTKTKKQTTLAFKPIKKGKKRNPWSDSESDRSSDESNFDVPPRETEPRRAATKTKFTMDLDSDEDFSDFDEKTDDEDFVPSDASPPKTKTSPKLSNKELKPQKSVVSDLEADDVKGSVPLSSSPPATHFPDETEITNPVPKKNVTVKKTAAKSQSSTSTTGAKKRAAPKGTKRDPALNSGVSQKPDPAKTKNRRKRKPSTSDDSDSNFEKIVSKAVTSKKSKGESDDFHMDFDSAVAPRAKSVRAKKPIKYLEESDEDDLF

E. faecalis ATCC 29212 = test: MIC, broth microdilution; format: cell-based; conditions: Enterococcus faecalis, ATCC29212, read-out: MIC E. faecalis ATCC 29212
[6] = system: S. aureus ATCC 43300 (MRSA); test: MIC, broth microdilution; format: cell-based; conditions: Staphylococcus aureus, ATCC43300|MRSA, read-out: MIC S. aureus ATCC 43300 (MRSA)
K. pneumoniae NCTC 13440 = test: MIC against fluoroquinolone-resistant clinical isolate; format: cell-based; conditions: Klebsiella pneumoniae, NCTC13440, read-out: MIC K. pneumoniae NCTC 13440
MRSA clinical isolate-1 = test: as above; format: cell-based; conditions: Staphylococcus aureus, read-out: MIC MRSA clinical isolate-1
K. pneumoniae SE K14 = test: as above; format: cell-based; conditions: Klebsiella pneumoniae, SEK14, read-out: MIC K. pneumoniae SE K14
A. baumannii ATCC 17978 = test: MIC, broth microdilution; format: cell-based; conditions: Acinetobacter baumannii, ATCC17978, read-out: MIC A. baumannii ATCC 17978
MRSA clinical isolate-2 = test: MIC against fluoroquinolone-resistant clinical isolate; format: cell-based; conditions: Staphylococcus aureus, read-out: MIC MRSA clinical isolate-2
[7] = system: E. spp. cloacae ATCC 13047; test: MIC, broth microdilution; format: cell-based; conditions: read-out: MIC E. spp. cloacae ATCC 13047
E. faecium ATCC 35667 = test: MIC, broth microdilution; format: cell-based
[8] = system: S. aureus ATCC 700699 (VISA); test: MIC, broth microdilution; format: cell-based; conditions: Staphylococcus aureus, ATCC700699|VISA, read-out: MIC S. aureus ATCC 700699 (VISA)
S. aureus ATCC 29213 [9] = test: spontaneous frequency of resistance; format: cell-based, Staphylococcus aureus
K. pneumoniae ATCC 10031 [10] = test: spontaneous frequency of resistance; format: cell-based, Klebsiella pneumoniae

Sequence of E. coli topoisomerase IV (P20083 whole entry): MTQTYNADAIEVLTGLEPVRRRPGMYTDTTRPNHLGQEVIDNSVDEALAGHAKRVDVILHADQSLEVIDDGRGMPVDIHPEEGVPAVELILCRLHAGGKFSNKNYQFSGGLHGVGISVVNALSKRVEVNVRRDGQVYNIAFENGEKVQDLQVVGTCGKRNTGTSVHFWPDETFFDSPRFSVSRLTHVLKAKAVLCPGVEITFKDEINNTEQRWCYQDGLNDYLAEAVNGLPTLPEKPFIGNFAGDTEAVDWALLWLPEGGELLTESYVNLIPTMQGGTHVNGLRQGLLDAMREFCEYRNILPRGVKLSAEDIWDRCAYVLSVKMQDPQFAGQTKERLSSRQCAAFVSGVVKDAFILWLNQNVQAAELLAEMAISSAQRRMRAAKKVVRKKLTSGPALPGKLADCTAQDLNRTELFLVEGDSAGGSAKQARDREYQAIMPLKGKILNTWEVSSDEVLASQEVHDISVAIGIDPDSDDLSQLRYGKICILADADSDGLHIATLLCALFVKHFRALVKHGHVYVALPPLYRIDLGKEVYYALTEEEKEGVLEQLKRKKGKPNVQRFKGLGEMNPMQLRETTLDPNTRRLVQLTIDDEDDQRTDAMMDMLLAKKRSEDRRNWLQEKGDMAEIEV
Sequence of E. coli topoisomerase IV (P0AFI2 whole entry partner): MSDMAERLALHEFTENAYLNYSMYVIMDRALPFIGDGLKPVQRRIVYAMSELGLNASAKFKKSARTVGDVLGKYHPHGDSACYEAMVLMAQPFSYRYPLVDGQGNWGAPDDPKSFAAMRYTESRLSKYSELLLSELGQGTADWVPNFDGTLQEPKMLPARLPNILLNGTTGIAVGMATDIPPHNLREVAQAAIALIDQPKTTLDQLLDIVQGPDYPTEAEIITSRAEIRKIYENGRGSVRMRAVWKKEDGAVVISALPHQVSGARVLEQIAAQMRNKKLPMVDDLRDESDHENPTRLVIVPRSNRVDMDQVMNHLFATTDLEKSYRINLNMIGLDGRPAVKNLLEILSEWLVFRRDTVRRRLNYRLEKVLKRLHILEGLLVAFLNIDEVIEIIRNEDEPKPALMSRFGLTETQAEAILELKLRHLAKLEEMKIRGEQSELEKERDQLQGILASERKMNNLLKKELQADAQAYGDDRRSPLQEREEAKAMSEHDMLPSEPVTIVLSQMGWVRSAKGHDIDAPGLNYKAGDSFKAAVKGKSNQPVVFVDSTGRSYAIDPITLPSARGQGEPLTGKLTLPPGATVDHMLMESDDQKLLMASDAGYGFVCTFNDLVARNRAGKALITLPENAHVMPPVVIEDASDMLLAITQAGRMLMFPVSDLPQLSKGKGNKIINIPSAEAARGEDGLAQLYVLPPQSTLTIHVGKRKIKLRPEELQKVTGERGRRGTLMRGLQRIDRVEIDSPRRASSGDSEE

SMILES | remaining activity at 1 µM (E. coli topoisomerase IV) [%] | remaining activity at 1 µM [1] [%] | remaining activity at 1 µM (S. aureus DNA gyrase) [%] | IC50 (E. coli DNA gyrase) [nM] | MIC (K. pneumoniae ATCC 10031 [2]) [µg/mL] | MIC (A. baumannii ATCC 19606) [µg/mL] | MIC (K. aerogenes ATCC 13408) [µg/mL] | MIC (S. aureus ATCC 29213 [3]) [µg/mL] | MIC (E. coli ATCC 25922) [µg/mL] | MIC (P. aeruginosa ATCC 27853) [µg/mL] | MIC [4] [µg/mL] | MIC (E. faecalis ATCC 29212) [µg/mL] | MIC [6] [µg/mL] | IC50 (E. coli topoisomerase IV) [nM] | MIC (A. baumannii ATCC 17978) [µg/mL] | MIC [7] [µg/mL] | other results
Cc1[nH]c(C(=O)Nc2ccc(C(=O)NCC(=O)O)cc2N2CCN(C(=O)OC(C)(C)C)CC2)c(Cl)c1Cl [Compound 8a, (3-(4-(tert-Butoxycarbonyl)piperazin-1-yl)-4-(3,4-dichloro-5-methyl-1H-pyrrole-2-carboxamido)benzoyl)glycine] | 93 | 22 | 37 | 84.1 |  |  |  |  |  |  |  |  |  |  |  |  | 
COC(=O)c1ccc(NC(=O)c2[nH]c(C)c(Cl)c2Cl)c(N2CCC[C@H](N)C2)c1.Cl [Compound 19c, (S)-1-(2-(3,4-Dichloro-5-methyl-1H-pyrrole-2-carboxamido)-5-(methoxycarbonyl)phenyl)piperidin-3-aminium chloride] | 79 |  | 27 | 120 | 4 | 16 | > 32 | 8 | > 32 | > 32 | > 32 |  |  |  |  |  | 
Cc1[nH]c(C(=O)Nc2ccc(-c3n[nH]c(=O)o3)cc2N2CCOCC2)c(Cl)c1Cl [Compound 22e, 3,4-Dichloro-5-methyl-N-(2-morpholino-4-(5-oxo-4,5-dihydro-1,3,4-oxadiazol-2-yl)phenyl)-1H-pyrrole-2-carboxamide] |  |  |  |  | > 64 |  |  | 0.25 (≈ 0.57 µM) | > 64 | > 64 |  | 0.125 (≈ 0.285 µM) | 0.25 (≈ 0.57 µM) | 1230 | > 64 | > 64 | MIC (K. pneumoniae K9–K25): > 64 µg/mL; MIC (K. pneumoniae SE K13): > 64 µg/mL; remaining activity at 100 µM [5]: 93%; MIC (K. pneumoniae NCTC 13440): > 64 µg/mL; MIC (MRSA clinical isolate-1): 0.5 µg/mL (≈ 1.14 µM); MIC (K. pneumoniae SE K14): > 64 µg/mL; MIC (MRSA clinical isolate-2): 0.5 µg/mL (≈ 1.14 µM)
Cc1[nH]c(C(=O)Nc2ccc(C(=O)O)cc2N2CCN(C(=O)OC(C)(C)C)CC2)c(Cl)c1Cl [Compound 18a, 3-(4-(tert-Butoxycarbonyl)piperazin-1-yl)-4-(3,4-dichloro-5-methyl-1H-pyrrole-2-carboxamido)benzoic acid] | 99 | 21 | 54 | 159 |  | > 32 | > 32 | 4 to 32 (≈ 8.04 to 64.3 µM) | > 32 | > 32 | > 32 |  |  |  |  |  | MIC E. faecium ATCC 35667 (E. faecium ATCC 35667): 16 µg/mL (≈ 32.2 µM); MIC S. aureus ATCC 29213 (S. aureus ATCC 29213 [3]; broth microdilution): 4 µg/mL (≈ 8.04 µM)
Cc1[nH]c(C(=O)Nc2ccc(C(=O)NCC(=O)O)cc2N2CC[C@H](N)C2)c(Cl)c1Cl [Compound 10b, (S)-1-(5-((Carboxymethyl)carbamoyl)-2-(3,4-dichloro-5-methyl-1H-pyrrole-2-carboxamido)phenyl)pyrrolidin-3-aminium chloride] |  |  |  | 19.3 |  |  |  |  |  |  |  |  |  | 958 |  |  | remaining activity at 10 µM [5]: 82%; IC50 [1]: 2560 nM; IC50 (S. aureus DNA gyrase): 112 nM
Cc1[nH]c(C(=O)Nc2ccc(C(=O)O)cc2N2CCNCC2)c(Cl)c1Cl.Cl [Compound 20a, 4-(5-Carboxy-2-(3,4-dichloro-5-methyl-1H-pyrrole-2-carboxamido)phenyl)piperazin-1-ium chloride] | 106 | 92 |  |  | > 64 | > 32 | > 32 | > 32 | > 32 | > 32 | > 32 |  | > 64 |  | > 64 | > 64 | remaining activity at 40 µM [5]: 116%; MIC [8]: > 64 µg/mL
Cc1[nH]c(C(=O)Nc2ccc(-c3n[nH]c(=O)o3)cc2NC2CCNCC2)c(Cl)c1Cl.Cl [Compound 23d, 4-((2-(3,4-Dichloro-5-methyl-1H-pyrrole-2-carboxamido)-5-(5-oxo-4,5-dihydro-1,3,4-oxadiazol-2-yl)phenyl)amino)piperidin-1-ium chloride] |  |  |  |  | 2 |  |  | > 64 | > 64 | > 64 |  | > 64 | > 64 | 1260 | > 64 | > 64 | remaining activity at 10 µM [5]: 99%; MIC [8]: > 64 µg/mL
Cc1[nH]c(C(=O)Nc2ccc(-c3n[nH]c(=O)o3)cc2N2CCNCC2)c(Cl)c1Cl.Cl [Compound 23a, 4-(2-(3,4-Dichloro-5-methyl-1H-pyrrole-2-carboxamido)-5-(5-oxo-4,5-dihydro-1,3,4-oxadiazol-2-yl)phenyl)piperazin-1-ium chloride] |  |  |  |  | 0.25 |  |  | 2 | > 64 | > 64 |  | 0.5 | 4 |  | > 64 | > 64 | MIC (K. pneumoniae K9–K25): > 64 µg/mL; MIC (K. pneumoniae SE K13): > 64 µg/mL; remaining activity at 100 µM [5]: 86%; resistance-proneness compared to novobiocin (S. aureus ATCC 29213 [9]): significantly less resistance-prone compared to novobiocin; MIC (K. pneumoniae NCTC 13440): > 64 µg/mL; MIC (MRSA clinical isolate-1): 4 µg/mL; MIC (K. pneumoniae SE K14): > 64 µg/mL; MIC (MRSA clinical isolate-2): 2 µg/mL; resistance-proneness compared to novobiocin (K. pneumoniae ATCC 10031 [10]): significantly less resistance-prone compared to novobiocin
COC(=O)c1ccc(NC(=O)c2[nH]c(C)c(Cl)c2Cl)c(N2CCNCC2)c1.Cl [Compound 19a, 4-(2-(3,4-Dichloro-5-methyl-1H-pyrrole-2-carboxamido)-5-(methoxycarbonyl)phenyl)piperazin-1-ium chloride] | 102 | 95 | 45 | 100 |  | 16 | > 32 | > 32 | > 32 | > 32 | > 32 |  |  |  |  |  | 
